In US10899763B2, “Crystalline forms of salts of fused penta-cyclic dihydrodiazepinocarbazolones, and uses thereof” (BEIGENE, LTD., priority 2017, dated 2021):
Read-outs that look alike come from different tables or passages of the source.

Experiments:
PARP = settings: for PARylation inhibition in tumor: 5.45 mg/kg single oral dose
Pharmacokinetics in rat = type: in vivo
Description: (§1) The species used for the pharmacokinetic studies were rat and dog. Compound 1 had good to excellent oral bioavailability (>40%) in both species. Elimination half-lives ranged from 3.1 to 5.0 hours in rats and 1.5 to 2.5 hours in dogs after oral administration. […] Steady state volume of distribution in rats and dogs was 2.4 L/kg and 1.9 L/kg, respectively.

[1] = test system: TMZ-resistant (TR) H209 tumors; test: TMZ-resistant H209-TR xenograft mouse model; type: in vivo; settings: combination of Compound 1 and TMZ
Source text: (§2) The in vivo efficacy of Compound 1 was explored in H209 SCLC xenograft model to evaluate the combination effect of Compound 1 and Temozolomide (TMZ), a DNA alkylating agent. TMZ single agent was quite effective in this model. […] However, resistance occurred quickly during the second cycle. […] In order to investigate whether Compound 1 could overcome the TMZ resistance, TMZ-resistant (TR) H209 tumors were generated by treating the H209 tumors with multiple cycles of TMZ in vivo. […] Mice with established intracranial H209 xenografts were used to further investigate the combination activity of Compound 1 and TMZ on SCLC in brain.

CYP isoform = test: CYP isoforms responsible for metabolism; type: in vitro ADME
[2] = Metabolism in rat liver microsomes; type: in vitro ADME
MDA-MB-231 cells = test: Synthetic lethality, CellTiter-Glo cell viability, MDA-MB-231; type: cell-based; settings: Homo sapiens; MDA-MB-231, BRCA wildtype; read-out: EC50
Description: MDA-MB-231 cells that is not BRCA gene mutant or other homologous recombination deficient were maintained in DMEM supplemented with fetal bovine serum (10% FBS), 100 units/ml penicillin and 0.1 mg/ml streptomycin. BRCA1-deficient cell line MDA-MB-436 was maintained in RPMI-1640 supplemented with 10% FBS, 100 units/ml penicillin and 0.1 mg/ml streptomycin. Both two cell lines were kept at 95% humidity and 5% CO2 in a 37° C. incubator.
The number of tumor cells seeded per well of a 96-well plate was optimized for each cell line to ensure logarithmic growth over the 7 days treatment period. Cells were left to attach for 16 hours and then treated with specific concentrations of test compounds. Following a 7-day exposure to the compound, the growth-inhibitory activity of compounds was determined using CellTiter-Glo luminescent cell viability assay (Promega). Luminescent signal was measured using PHERAstar FS reader (BMG Labtech). Cell viability was expressed as relative to mock treatment control. EC50 values for growth inhibition were calculated by fitting dose-dependent data to the four-parameter logistic model using XLfit software.

[3] = Plasma protein binding, rat plasma; type: in vitro ADME
CYP3A = test: CYP induction, CYP3A; type: in vitro ADME, human
[4] = Metabolism in monkey liver microsomes; type: in vitro ADME
[5] = test system: intracranial H209 xenografts; test: Intracranial H209 xenograft model; type: in vivo, Mice; settings: addition of Compound 1 to TMZ
Source text: as §2

Pharmacokinetics in dog = type: in vivo
Description: as §1

human CYP1A2 = test: CYP induction, CYP1A2; type: in vitro ADME
[6] = Metabolism in mouse liver microsomes; type: in vitro ADME
[7] = Phase I clinical safety study; type: in vivo; settings: BRCA1/2 mutant ovary cancer patients
[8] = test system: BRCA1 mutation breast cancer xenograft; test: BRCA1 mutation breast cancer xenograft model; type: in vivo; settings: at much lower dose than olaparib
Ames assay = type: cell-based
Brain penetration = settings: in vivo
[9] = Metabolism in human liver microsomes; type: in vitro ADME
[10] = Metabolism in dog liver microsomes; type: in vitro ADME
[11] = Nonclinical toxicity, single and repeat dose up to 28 days, dogs; type: in vivo
CYP2B6 = test: CYP induction, CYP2B6; type: in vitro ADME, human
[12] = Nonclinical toxicity, single and repeat dose up to 28 days, rats; type: in vivo
H209 SCLC xenograft = H209 SCLC xenograft model, combination with TMZ; type: in vivo, mouse; settings: combination of Compound 1 and TMZ, multiple cycles
Source text: as §2

[13] = Tissue distribution and excretion after oral administration in rats; type: in vivo
Description: After oral administration in rats, Compound 1 was detected in all organs checked. The drug concentrations reached maximum at 0.25 to 1 hour post-dosing and decreased to less than 10% of the peak concentration at 24 hours post-dosing.
Compound 1 was primarily excreted in feces. The accumulative excretion amounts of Compound 1 in feces were 15% to 20% (up to 48 hours) after oral administration. Less than 1% of Compound 1 was excreted in urine and bile in rats.

With `C[C@]12CCCN1CC1=NNC(=O)c3cc(F)cc4[nH]c2c1c34` [Compound 1, (R)-2-fluoro-10a-methyl-7,8,9,10,10a,11-hexahydro-5,6,7a,11-tetraazacyclohepta[def]cyclopenta-[a]fluoren-4(5H)-one] the “PARylation inhibition in tumor” value (PARP; 0.5 hour after treatment) was 98%, the “PARylation inhibition in tumor” value (PARP; at 24 hours) was 53% and the “PARylation inhibition in tumor” value (PARP; through the first 12 hours) was > 80%. For the same molecule, the “single oral dose at which potent inhibition of PARylation was observed” value (PARP; at 4 hours after single oral dose) was ≥ 0.34 mg/kg, the “concentration in tumor tissues needed to achieve at least 80% PARylation inhibition” value (PARP; dose titration and time course study) was “over 0.5 μmol/kg” and the “accumulation following multiple oral dosing” value (Pharmacokinetics in rat) was “no accumulation”. For the same molecule, the “sensitivity of H209-TR lines to combination with TMZ” value [1] was “remained sensitive”, the “major CYP isoform responsible for metabolism” value (CYP isoform) was “CYP3A” and the “metabolism rate in liver microsomes” value [2] was “metabolized slowly”. The EC50 (MDA-MB-231 cells) was ~9 µM, the “Plasma protein binding (PPB)” value [3] was 84.9% and the “induction of human CYP3A” value (CYP3A) was “not an inducer”. For the same molecule, the “metabolism rate in liver microsomes” value [4] was “quickly”, the “animal survival compared to TMZ single agent” value [5] was “significantly prolonged animal survival” and the “accumulation following multiple oral dosing” value (Pharmacokinetics in dog) was “no accumulation”. The “induction of human CYP1A2” value (human CYP1A2) was “not an inducer”, the “metabolism rate in liver microsomes” value [6] was “metabolized slowly” and the clinical response [7] was “partial or complete responses”. For the same molecule, the tumor regression [8] was “significantly induces tumor regression”, the mutagenicity (Ames assay) was “No mutagenicity” and the brain penetration (Brain penetration) was “significant brain penetration”. For the same molecule, the “metabolism rate in liver microsomes” value [9] was “metabolized slowly”, the “metabolism rate in liver microsomes” value [10] was “metabolized slowly” and the reversibility of toxicity [11] was “reversible after 28-day recovery phase”. The “major target organ of toxicity” value ([11]; up to 28 days) was “bone marrow”, the “induction of human CYP2B6” value (CYP2B6) was “not an inducer” and the reversibility of toxicity [12] was “reversible after 28-day recovery phase”. The “major target organ of toxicity” value ([12]; up to 28 days) was “bone marrow”, the “effect of combination with TMZ on resistance” value (H209 SCLC xenograft) was “significantly delayed resistance without additional toxicity” and the “excreted in urine and bile” value [13] was “Less than 1%”. The “drug concentration in organs as % of the peak concentration” value ([13]; oral, 24 hours post-dosing) was “less than 10%”.
